27 compounds from ChEMBL document CHEMBL1138997, “Synthesis and antitumor activity of simplified ecteinascidin-saframycin analogs” (Bioorg Med Chem Lett, 2006) can be followed below.

Format in all cases: functional, cell-based
Common to all, as to details: Homo sapiens

One experiment concerns BGC-823. The experiment in a line: Cytotoxicity against BGC823 gastric carcinoma cell.
The next experiment deals with HCT-8. Kind of experiment: Cytotoxicity against HCT8 colon carcinoma cell.
For another experiment, the system named is Bel-7402. Kind of experiment: Cytotoxicity against Bel7402 liver carcinoma cell.

Molecules are shown by their SMILES.

In general, IC50 refers to the midpoint of a concentration-inhibition curve. Low values mean higher potency, high ones lower potency. In the case of `COc1cc2c(cc1OC)[C@@H]1[C@@H]3Cc4cc(OC)c(OC)cc4[C@H](COC(=O)c4ccccc4)N3[C@@H](C#N)[C@H](C2)N1C`, the IC50 was 0.015 µM with BGC-823, 0.44 µM with HCT-8 and 0.59 µM in the experiment with Bel-7402.

On to `COc1cc2c(cc1OC)[C@@H]1[C@@H]3Cc4cc(OC)c(OC)cc4[C@H](COC(=O)c4cnccn4)N3[C@@H](C#N)[C@H](C2)N1C`, for which the IC50 was 1.69 µM with BGC-823, 3.48 µM in the experiment with HCT-8 and 3.5 µM with Bel-7402.

Turning to `COc1cc2c(cc1OC)[C@@H]1[C@@H]3Cc4cc(OC)c(OC)cc4[C@H](COC(=O)c4cccnc4)N3[C@@H](C#N)[C@H](C2)N1C`, the IC50 with BGC-823 came out at 1.02 µM; with HCT-8 it was 3.28 µM; with Bel-7402 it was 2.1 µM.

For `COc1cc2c(cc1OC)[C@@H]1[C@@H]3Cc4cc(OC)c(OC)cc4[C@H](CNC(=O)c4ccccc4)N3[C@@H](C#N)[C@H](C2)N1C`, the figures for the IC50 in the experiment with BGC-823, in the experiment on HCT-8 and in the experiment with Bel-7402 were 1.4 µM, 1.35 µM and 1.35 µM, respectively.

For the compound `COc1cc2c(cc1OC)[C@@H]1[C@@H]3Cc4cc(OC)c(OC)cc4[C@H](CNC(=O)c4ccccc4Cl)N3[C@@H](C#N)[C@H](C2)N1C`, the IC50 in the experiment on BGC-823 was 1.91 µM; in the experiment with HCT-8, 1.85 µM; in the experiment with Bel-7402 it was 1.87 µM.

In the case of `COc1cc2c(cc1OC)[C@@H]1[C@@H]3Cc4cc(OC)c(OC)cc4[C@H](COC(C)=O)N3[C@@H](C#N)[C@H](C2)N1C`, the results for the IC50 in the experiment with BGC-823, in the experiment on HCT-8 and in the experiment with Bel-7402 were 0.15 µM, 0.31 µM and 0.34 µM, respectively.

`COc1cc2c(cc1OC)[C@@H]1[C@@H]3Cc4cc(OC)c(OC)cc4[C@H](COC(=O)c4cccc(Cl)c4)N3[C@@H](C#N)[C@H](C2)N1C`: the IC50 came to 0.029 µM in the experiment on BGC-823, 0.1 µM in the experiment on HCT-8 and 1.12 µM with Bel-7402.

For the compound `COc1cc2c(cc1OC)[C@@H]1[C@@H]3Cc4cc(OC)c(OC)cc4[C@H](COC(=O)c4cncc(Br)c4)N3[C@@H](C#N)[C@H](C2)N1C`, the IC50 amounted to 0.45 µM with BGC-823, 1.17 µM in the experiment on HCT-8 and 1.49 µM in the experiment with Bel-7402.

For the compound `COc1cc2c(cc1OC)[C@@H]1[C@@H]3Cc4cc(OC)c(OC)cc4[C@H](COC(=O)CCCc4ccccc4)N3[C@@H](C#N)[C@H](C2)N1C`, the values for the IC50 in the experiment with BGC-823, in the experiment with HCT-8 and with Bel-7402 were 0.75 µM, 0.83 µM and 0.12 µM, respectively.

For the compound `COc1cc2c(cc1OC)[C@@H]1[C@@H]3Cc4cc(OC)c(OC)cc4[C@H](CNC(=O)/C=C/c4ccccc4)N3[C@@H](C#N)[C@H](C2)N1C`, the results for the IC50 with BGC-823, in the experiment on HCT-8 and with Bel-7402 were 1.31 µM, 1.78 µM and 1.45 µM, respectively.

For the compound `COc1cc2c(cc1OC)[C@@H]1[C@@H]3Cc4cc(OC)c(OC)cc4[C@H](COC(=O)c4cc5ccccc5[nH]4)N3[C@@H](C#N)[C@H](C2)N1C`, the IC50 in the experiment with BGC-823 came out at 0.01 µM; in the experiment on HCT-8, 0.62 µM; in the experiment with Bel-7402, 0.85 µM.

Consider `COc1cc2c(cc1OC)[C@@H]1[C@@H]3Cc4cc(OC)c(OC)cc4[C@H](COC(=O)/C=C/c4ccccc4)N3[C@@H](C#N)[C@H](C2)N1C`, for which the IC50 in the experiment on BGC-823 came out at 0.058 µM; in the experiment on HCT-8 it was 0.037 µM; with Bel-7402 it was 0.68 µM.

For the compound `COc1cc2c(cc1OC)[C@@H]1[C@@H]3Cc4cc(OC)c(OC)cc4[C@H](COC(=O)c4cccs4)N3[C@@H](C#N)[C@H](C2)N1C`, the values for the IC50 in the experiment with BGC-823, in the experiment on HCT-8 and with Bel-7402 were 0.21 µM, 1.6 µM and 0.82 µM, respectively.

For `COc1cc2c(cc1OC)[C@@H]1[C@@H]3Cc4cc(OC)c(OC)cc4[C@H](COC(=O)c4cccc5ccccc45)N3[C@@H](C#N)[C@H](C2)N1C`, the figures for the IC50 in the experiment with BGC-823, with HCT-8 and with Bel-7402 were 0.006 µM, 0.34 µM and 0.71 µM, respectively.

In the case of `COc1cc2c(cc1OC)[C@@H]1[C@@H]3Cc4cc(OC)c(OC)cc4[C@H](CNC(=O)c4cccs4)N3[C@@H](C#N)[C@H](C2)N1C`, the IC50 in the experiment on BGC-823 was found to be 1.16 µM; in the experiment on HCT-8 it was 1.28 µM; in the experiment on Bel-7402, 0.79 µM.

For `COc1cc2c(cc1OC)[C@@H]1[C@@H]3Cc4cc(OC)c(OC)cc4[C@H](COC(=O)Cc4ccc(F)cc4)N3[C@@H](C#N)[C@H](C2)N1C`, the IC50 in the experiment with BGC-823 is 0.2 µM; in the experiment with HCT-8, 0.24 µM; with Bel-7402, 0.2 µM.

Turning to `COc1cc2c(cc1OC)[C@@H]1[C@@H]3Cc4cc(OC)c(OC)cc4[C@H](CNC(=O)c4ccco4)N3[C@@H](C#N)[C@H](C2)N1C`, the IC50 was found to be 1.32 µM in the experiment on BGC-823, 1.38 µM in the experiment on HCT-8 and 1.2 µM with Bel-7402.

Turning to `C=CC(=O)NC[C@H]1c2cc(OC)c(OC)cc2C[C@H]2[C@H]3c4cc(OC)c(OC)cc4C[C@@H]([C@H](C#N)N12)N3C`, the IC50 in the experiment with BGC-823 amounted to 2 µM; in the experiment with HCT-8, 2.71 µM; with Bel-7402, 1.87 µM.

In the case of `COc1cc2c(cc1OC)[C@@H]1[C@@H]3Cc4cc(OC)c(OC)cc4[C@H](COC(=O)c4ccco4)N3[C@@H](C#N)[C@H](C2)N1C`, the IC50 with BGC-823 worked out at 0.58 µM; in the experiment with HCT-8 it was 0.69 µM; in the experiment with Bel-7402 it was 0.75 µM.

For `COc1ccc(CC(=O)OC[C@H]2c3cc(OC)c(OC)cc3C[C@H]3[C@H]4c5cc(OC)c(OC)cc5C[C@@H]([C@H](C#N)N23)N4C)cc1`, the IC50 in the experiment with BGC-823 was found to be 1.14 µM; in the experiment with HCT-8 it was 3.56 µM; in the experiment on Bel-7402 it was 3.01 µM.

For the compound `COc1cc2c(cc1OC)[C@@H]1[C@@H]3Cc4cc(OC)c(OC)cc4[C@H](CNC(=O)c4cccc5ccccc45)N3[C@@H](C#N)[C@H](C2)N1C`, the IC50 in the experiment on BGC-823 is 1.86 µM; in the experiment on HCT-8 it was 1.72 µM; with Bel-7402, 2.08 µM.

Turning to `COc1cc2c(cc1OC)[C@@H]1[C@@H]3Cc4cc(OC)c(OC)cc4[C@H](CNC(=O)c4ccc([N+](=O)[O-])cc4)N3[C@@H](C#N)[C@H](C2)N1C`, the IC50 in the experiment on BGC-823 turned out to be 1.37 µM; in the experiment with HCT-8, 1.23 µM; with Bel-7402, 1.22 µM.

Consider `COc1cc2c(cc1OC)[C@@H]1[C@@H]3Cc4cc(OC)c(OC)cc4[C@H](CNC(=O)c4cccc(Cl)c4)N3[C@@H](C#N)[C@H](C2)N1C`, for which the values for the IC50 with BGC-823, in the experiment on HCT-8 and in the experiment on Bel-7402 were 1.01 µM, 1.54 µM and 0.95 µM, respectively.

On to `CCC(=O)OC[C@H]1c2cc(OC)c(OC)cc2C[C@H]2[C@H]3c4cc(OC)c(OC)cc4C[C@@H]([C@H](C#N)N12)N3C`, for which the IC50 was 0.15 µM in the experiment on BGC-823, 0.3 µM in the experiment with HCT-8 and 0.11 µM with Bel-7402.

For the compound `C=CC(=O)OC[C@H]1c2cc(OC)c(OC)cc2C[C@H]2[C@H]3c4cc(OC)c(OC)cc4C[C@@H]([C@H](C#N)N12)N3C`, the results for the IC50 with BGC-823, with HCT-8 and with Bel-7402 were 0.46 µM, 2.14 µM and 0.76 µM, respectively.

As for `COc1cc2c(cc1OC)[C@@H]1[C@@H]3Cc4cc(OC)c(OC)cc4[C@H](COC(=O)[C@H]4Cc5ccccc5CN4Cc4ccccc4)N3[C@@H](C#N)[C@H](C2)N1C`, the IC50 in the experiment on BGC-823 stood at 0.36 µM; with HCT-8 it was 1.42 µM; in the experiment on Bel-7402, 1.69 µM.

With `COc1cc2c(cc1OC)[C@@H]1[C@@H]3Cc4cc(OC)c(OC)cc4[C@H](COC(=O)c4ccccn4)N3[C@@H](C#N)[C@H](C2)N1C`, the IC50 turned out to be 1.44 µM in the experiment with BGC-823, 5.15 µM in the experiment with HCT-8 and 2.02 µM in the experiment on Bel-7402.
